Experimental data as given in the supplement of paper PMC11451515.

Legend:
Test in all cases: AUC of viability dose-response curve (% viability x log10 dose units); higher = less sensitive
Settings in all cases: 48 h
NOMO1 = system: NOMO1
Summary of the method: (§1)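 In 1536-well plates, leukemia cells adapted to each medium (500 or 1000 cells/well) were exposed for 48 h at 37°C to library compounds in DMSO across 11 threefold doses, 47 μM down to 0.79 nM. Viability was read by CellTiter-Glo One luminescence and normalised per plate to DMSO and cell-free wells. A four-parameter log-logistic fit over log10 doses was integrated by trapezoidal rule. This yielded the area under the curve, with over-full-viability curves scaled and quality-control failures dropped.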

P12-Ichikawa = system: P12-Ichikawa
Summary of the method: as §1

SEM cells = system: SEM cells
Summary of the method: as §1

[1] = RPMI 5 mM glucose + 10% dialyzed FBS

Structure (SMILES)	AUC of viability dose-response curve (NOMO1; HPLM + 10% dialyzed FBS)	AUC of viability dose-response curve (NOMO1; RPMI 5 mM glucose + 10% FBS)	AUC of viability dose-response curve (NOMO1; [1])	AUC of viability dose-response curve (P12-Ichikawa; HPLM + 10% dialyzed FBS)	AUC of viability dose-response curve (P12-Ichikawa; RPMI 5 mM glucose + 10% FBS)	AUC of viability dose-response curve (P12-Ichikawa; [1])	AUC of viability dose-response curve (SEM cells; HPLM + 10% dialyzed FBS)	AUC of viability dose-response curve (SEM cells; RPMI 5 mM glucose + 10% FBS)	AUC of viability dose-response curve (SEM cells; [1])
COc1ccc(-n2nc(C(N)=O)c3c2C(=O)N(c2ccc(N4CCCCC4=O)cc2)CC3)cc1	313	270	300	371	370	381	464	432	442
NC\1=N\C(=O)N(\C=C1)[C@@H]2O[C@H](CO)[C@@H](O)[C@H]2O	417	463	466	467	471	469	452	443	438
Cc1c(C(=O)NN2CCCCC2)nn(-c2ccc(Cl)cc2Cl)c1-c1ccc(Cl)cc1	325	303	337	–	–	–	473	455	469
S=C1N\C=N/C2=C1[NH]C=N2	425	446	360	404	377	343	445	409	360
